Values of other authors in US8445527B2, “Organic compounds and their uses” (Novartis AG, priority 2006, dated 2013).

System: HCV
Settings: ribavirin alone

NC(=O)c1ncn([C@@H]2O[C@H](CO)[C@@H](O)[C@H]2O)n1 [Ribavirin, 1-β-D-ribofuranosyl-1-1,2,4-triazole-3-caroxamide]
patients in whom serum amino transferase levels are reduced to normal: 40%
serum levels of HCV-RNA: does not lower
